Read-outs that look alike come from different tables or passages of the source.
Columns and labels:
VCaP cells = test: Cellular growth inhibition assay for VCaP cells (CellTiter-Glo, 72 hours); format: cell-based, human
Method in brief: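 Luminescent viability signal after 72 h of compound exposure gave GI50 values by four-parameter nonlinear regression. Compounds were added in 0.5% DMSO to cells plated 24 h earlier at 5000/well in DMEM containing 10% FBS.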

[1] = tested on: T-Rex 293 cell line SC3 cells having increased expression of androgen receptor protein due to exposure to doxycycline; test: Cellular growth inhibition assay, T-Rex 293 SC3 cells with doxycycline (CellTiter-Glo, 72 hours); format: cell-based; conditions: T-Rex 293 SC3 cells with increased androgen receptor expression due to doxycycline (10 ng/mL)
Method in brief: (§1)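 Growth inhibition is measured in an inducible AR-expressing T-Rex 293 clone, SC3, cultured with or without 10 ng/mL doxycycline in hormone-depleted medium. Test compounds are applied for 72 hours. GI50 values derive from CellTiter-Glo 2.0 signal fitted by four-parameter regression.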

[2] = tested on: T-Rex 293 cell line SC3 cells lacking increased expression of androgen receptor protein; test: Cellular growth inhibition assay, T-Rex 293 SC3 cells without doxycycline (CellTiter-Glo, 72 hours); format: cell-based; conditions: T-Rex 293 cell line SC3 cells not exposed to doxycycline (lacking increased androgen receptor expression)
Method in brief: as §1

| SMILES | GI50 (VCaP cells; Homo sapiens, VCaP, 72 h) [nM] | GI50 ([1]; 72 h) [nM] | GI50 ([2]; 72 h) [nM] | GI50 (VCaP cells) [nM] | GI50 [2] [nM] | GI50 [1] [nM] |
| --- | --- | --- | --- | --- | --- | --- |
| Cc1sc2c(c1C)C(c1ccc(N3CCC4(CCCN(c5ccc(C(=O)N[C@H]6CC[C@H](Oc7ccc(C#N)c(Cl)c7)CC6)nn5)C4)CC3)nc1)=NCc1nnc(C)n1-2 [I-476] | < 500 | < 500 | > 3000 | – | – | – |
| Cc1sc2c(c1C)C(c1ccc(N3CCC4(CC3)CCN(c3ccc(C(=O)N[C@H]5CC[C@H](Oc6ccc(C#N)c(Cl)c6)CC5)nn3)C4)nc1)=NC1(CC1)c1nnc(C)n1-2 [I-477] | 1500 to 3000 | < 500 | 500 to 1500 | – | – | – |
| Cc1sc2c(c1C)C(c1ccc(N3CC(C4CCN(c5ccc(C(=O)N[C@H]6CC[C@H](Oc7ccc(C#N)c(Cl)c7)CC6)nn5)CC4)C3)nc1)=NCc1nnc(C)n1-2 [I-478] | < 500 | < 500 | > 3000 | – | – | – |
| Cc1sc2c(c1C)C(c1ccc(OC3CC4(C3)CC3(CCN(c5ccc(C(=O)N[C@H]6CC[C@H](Oc7ccc(C#N)c(Cl)c7)CC6)nn5)CC3)C4)nc1)=NCc1nnc(C)n1-2 [I-479] | < 500 | < 500 | > 3000 | – | – | – |
| Cc1sc2c(c1C)C(c1ccc(N3CCC(CN4CCN(c5ccc(C(=O)N[C@H]6CC[C@H](Oc7ccc(C#N)c(Cl)c7)CC6)nn5)CC4)CC3)cc1)=NC1(CC1)c1nnc(C)n1-2 [I-480] | < 500 | < 500 | 500 to 1500 | – | – | – |
| Cc1sc2c(c1C)C(c1ccc(C#CC3CC4(CCCN(c5ccc(C(=O)N[C@H]6CC[C@H](Oc7ccc(C#N)c(Cl)c7)CC6)nn5)C4)C3)cn1)=NC(C)c1nnc(C)n1-2 (stereo partly drawn) [I-481] | – | < 500 | – | < 500 | < 500 | – |
| Cc1sc2c(c1C)C(c1ccc(OCC3CC4(CCCN(c5ccc(C(=O)N[C@H]6CC[C@H](Oc7ccc(C#N)c(Cl)c7)CC6)nn5)C4)C3)cn1)=N[C@@H](C)c1nnc(C)n1-2 (stereo partly drawn) [I-482] | < 500 | < 500 | < 500 | – | – | – |
| Cc1sc2c(c1C)C(c1ccc(OCC3CC4(CCCN(c5ccc(C(=O)N[C@H]6CC[C@H](Oc7ccc(C#N)c(Cl)c7)CC6)nn5)C4)C3)cn1)=N[C@@H](C)c1nnc(C)n1-2 (stereo partly drawn) [I-483] | – | – | – | < 500 | < 500 | < 500 |
| Cc1sc2c(c1C)C(c1ccc(OC3CC4(CCN(c5ccc(C(=O)N[C@H]6CC[C@H](Oc7ccc(C#N)c(Cl)c7)CC6)nn5)CC4)C3)cn1)=N[C@@H](C)c1nnc(C)n1-2 [I-484] | – | < 500 | – | < 500 | 500 to 1500 | – |
| Cc1sc2c(c1C)C(c1ccc(N3CCC4(CC3)CCN(c3ccc(C(=O)N[C@H]5CC[C@H](Oc6ccc(C#N)c(Cl)c6)CC5)nn3)CC4)cc1)=N[C@@H](C)c1nnc(C)n1-2 [I-485] | < 500 | < 500 | < 500 | – | – | – |
| Cc1sc2c(c1C)C(c1ccc(OCC3CC4(CCCN(c5ccc(C(=O)N[C@H]6CC[C@H](Oc7ccc(C#N)c(Cl)c7)CC6)nn5)C4)C3)nc1)=NC1(CC1)c1nnc(C)n1-2 (stereo partly drawn) [I-486] | < 500 | < 500 | > 3000 | – | – | – |
| Cc1sc2c(c1C)C(c1ccc(OCC3CC4(CCCN(c5ccc(C(=O)N[C@H]6CC[C@H](Oc7ccc(C#N)c(Cl)c7)CC6)nn5)C4)C3)nc1)=NC1(CC1)c1nnc(C)n1-2 (stereo partly drawn) [I-487] | – | – | – | < 500 | > 3000 | < 500 |
| Cc1sc2c(c1C)C(c1ccc(CC3CC4(CCCN(c5ccc(C(=O)N[C@H]6CC[C@H](Oc7ccc(C#N)c(Cl)c7)CC6)nn5)C4)C3)cc1)=NCc1nnc(C)n1-2 (stereo partly drawn) [I-488] | – | – | > 3000 | < 500 | – | < 500 |
| Cc1sc2c(c1C)C(c1ccc(OCC3CC4(CCCN(c5ccc(C(=O)N[C@H]6CC[C@H](Oc7ccc(C#N)c(Cl)c7)CC6)nn5)C4)C3)cc1)=NCc1nnc(C)n1-2 (stereo partly drawn) [I-489] | – | – | – | < 500 | > 3000 | < 500 |
| Cc1sc2c(c1C)C(c1ccc(N3CCC4(CC3)CCN(c3ccc(C(=O)N[C@H]5CC[C@H](Oc6ccc(C#N)c(Cl)c6)CC5)nn3)CC4)cc1)=NC1(CC1)c1nnc(C)n1-2 [I-490] | > 3000 | < 500 | > 3000 | – | – | – |
| Cc1sc2c(c1C)C(c1ccc(N3CCN(CC4CCN(c5ccc(C(=O)N[C@H]6CC[C@H](Oc7ccc(C#N)c(Cl)c7)CC6)nn5)CC4)CC3)cc1)=NC1(CC1)c1nnc(C)n1-2 [I-491] | > 3000 | < 500 | < 500 | – | – | – |

| SMILES | GI50 (VCaP cells; Homo sapiens, VCaP, 72 h) [nM] | GI50 ([1]; 72 h) [nM] | GI50 ([2]; 72 h) [nM] | GI50 (VCaP cells) [nM] | GI50 [2] [nM] | GI50 [1] [nM] |
| --- | --- | --- | --- | --- | --- | --- |
| Cc1sc2c(c1C)C(c1ccc(N3CCC(CC4CCN(c5ccc(C(=O)N[C@H]6CC[C@H](Oc7ccc(C#N)c(Cl)c7)CC6)nn5)CC4)CC3)cc1)=NC1(CC1)c1nnc(C)n1-2 [I-492] | < 500 | < 500 | > 3000 | – | – | – |
| Cc1sc2c(c1C)C(c1ccc(COC3CCC4(CCCN(c5ccc(C(=O)N[C@H]6CC[C@H](Oc7ccc(C#N)c(Cl)c7)CC6)nn5)C4)C3)cc1)=NC1(CC1)c1nnc(C)n1-2 (stereo partly drawn) [I-493] | – | < 500 | – | > 3000 | 500 to 1500 | – |
| Cc1sc2c(c1C)C(c1ccc(C3CCC4(CC3)CCN(c3ccc(C(=O)N[C@H]5CC[C@H](Oc6ccc(C#N)c(Cl)c6)CC5)nn3)C4)cc1)=N[C@@H](C)c1nnc(C)n1-2 (stereo partly drawn) [I-494] | < 500 | – | < 500 | – | – | < 500 |
| Cc1sc2c(c1C)C(c1ccc(C3CCC4(CC3)CCN(c3ccc(C(=O)N[C@H]5CC[C@H](Oc6ccc(C#N)c(Cl)c6)CC5)nn3)C4)cc1)=N[C@@H](C)c1nnc(C)n1-2 (stereo partly drawn) [I-495] | – | – | – | < 500 | < 500 | > 3000 |
| Cc1sc2c(c1C)C(c1ccc(C3CCC4(CCN(c5ccc(C(=O)N[C@H]6CC[C@H](Oc7ccc(C#N)c(Cl)c7)CC6)nn5)CC4)C3)cc1)=N[C@@H](C)c1nnc(C)n1-2 (stereo partly drawn) [I-496] | – | < 500 | > 3000 | < 500 | – | – |
| Cc1sc2c(c1C)C(c1ccc(C3CCC4(CCN(c5ccc(C(=O)N[C@H]6CC[C@H](Oc7ccc(C#N)c(Cl)c7)CC6)nn5)CC4)C3)cc1)=N[C@@H](C)c1nnc(C)n1-2 (stereo partly drawn) [I-497] | – | – | – | 1500 to 3000 | > 3000 | < 500 |
| Cc1sc2c(c1C)C(c1ccc(N3CCN(CC4CCN(c5ccc(C(=O)N[C@H]6CC[C@H](Oc7ccc(C#N)c(Cl)c7)CC6)nn5)CC4)CC3)cc1)=N[C@@H](C)c1nnc(C)n1-2 [I-498] | < 500 | < 500 | > 3000 | – | – | – |
| Cc1sc2c(c1C)C(c1ccc(N3CCC(CN4CCN(c5ccc(C(=O)N[C@H]6CC[C@H](Oc7ccc(C#N)c(Cl)c7)CC6)nn5)CC4)CC3)cc1)=N[C@@H](C)c1nnc(C)n1-2 [I-499] | < 500 | < 500 | > 3000 | – | – | – |
| Cc1sc2c(c1C)C(c1ccc(N3CCC(CC4CCN(c5ccc(C(=O)N[C@H]6CC[C@H](Oc7ccc(C#N)c(Cl)c7)CC6)nn5)CC4)CC3)cc1)=N[C@@H](C)c1nnc(C)n1-2 [I-500] | > 3000 | < 500 | > 3000 | – | – | – |
| Cc1sc2c(c1C)C(c1ccc(N3CCC4(CCCN(c5ccc(C(=O)N[C@H]6CC[C@H](Oc7ccc(C#N)c(Cl)c7)CC6)nn5)C4)CC3)cn1)=NC1(CC1)c1nnc(C)n1-2 [I-501] | < 500 | < 500 | > 3000 | – | – | – |
| Cc1sc2c(c1C)C(c1ccc(N3CCC4(CC3)CCN(c3ccc(C(=O)N[C@H]5CC[C@H](Oc6ccc(C#N)c(Cl)c6)CC5)nn3)C4)cn1)=NC1(CC1)c1nnc(C)n1-2 [I-502] | > 3000 | < 500 | > 3000 | – | – | – |
| Cc1sc2c(c1C)C(c1ccc(N3CC(C4CCN(c5ccc(C(=O)N[C@H]6CC[C@H](Oc7ccc(C#N)c(Cl)c7)CC6)nn5)CC4)C3)nc1)=NC1(CC1)c1nnc(C)n1-2 [I-503] | – | – | – | 1500 to 3000 | > 3000 | < 500 |
| Cc1sc2c(c1C)C(c1ccc(OC3CC4(C3)CC3(CCN(c5ccc(C(=O)N[C@H]6CC[C@H](Oc7ccc(C#N)c(Cl)c7)CC6)nn5)CC3)C4)nc1)=NC1(CC1)c1nnc(C)n1-2 [I-504] | < 500 | < 500 | 500 to 1500 | – | – | – |
| CC1=NN=C2C1c1sc(C)c(C)c1C(c1ccc(N3C[C@@H]4CN(c5ccc(C(=O)N[C@H]6CC[C@H](Oc7ccc(C#N)c(Cl)c7)CC6)nn5)C[C@@H]4C3)cc1)=NC21CC1 (stereo partly drawn) [I-505] | < 500 | < 500 | > 3000 | – | – | – |
| Cc1sc2c(c1C)C(c1ccc(OC3CCC4(C3)CN(c3ccc(C(=O)N[C@H]5CC[C@H](Oc6ccc(C#N)c(Cl)c6)CC5)nn3)CCO4)cc1)=NC1(CC1)c1nnc(C)n1-2 (stereo partly drawn) [I-506] | – | < 500 | > 3000 | 1500 to 3000 | – | – |
